pKi: −log10 of the molar value. Structures can show the parent of a compound that is named as a salt.
Biological target: T1, human cloned 5-HT6 receptors (Homo sapiens, UniProt P50406)
T1 construct: expressed in transfected cells
Assay: affinity for the 5-HT6 receptor (procedures of WO98/27081)
Format: binding
Description: Compounds can be tested following the procedures outlined in WO98/27081.

T1 sequence (P50406 whole entry): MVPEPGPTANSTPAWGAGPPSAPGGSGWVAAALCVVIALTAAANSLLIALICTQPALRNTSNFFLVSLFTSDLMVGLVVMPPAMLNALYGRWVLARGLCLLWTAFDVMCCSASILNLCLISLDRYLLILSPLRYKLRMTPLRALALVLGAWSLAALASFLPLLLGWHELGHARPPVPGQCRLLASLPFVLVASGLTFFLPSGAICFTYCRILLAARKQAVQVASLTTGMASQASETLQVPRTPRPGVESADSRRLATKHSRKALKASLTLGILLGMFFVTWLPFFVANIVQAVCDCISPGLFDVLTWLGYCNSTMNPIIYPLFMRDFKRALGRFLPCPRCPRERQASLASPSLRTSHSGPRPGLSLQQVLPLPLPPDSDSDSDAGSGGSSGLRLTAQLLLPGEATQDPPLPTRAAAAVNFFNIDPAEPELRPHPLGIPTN

pKi: > 8.00
SMILES: O=S(=O)(c1cccc(Cl)c1)n1ccc2c(N3CCNCC3)ccnc21 [Example E1, 4[1-(3-Chlorobenzenesulfonyl)-1-pyrrolo[2,3-b]pyridin-4-yl]-piperazine hydrochloride]
